Test results as given in US20170273949A1, “AGENT FOR PREVENTING AND/OR TREATING OPHTHALMOLOGIC DISEASES” (MITSUBISHI TANABE PHARMA CORPORATION, priority 2014, published 2017).

Tests used:
[1] = system: human retinal microvascular endothelial cells (HRMECs); assay: VEGF-induced cell growth of HRMECs (cell counting kit-8); format: cell-based; conditions: edaravone 1, 10 or 100 μM added 1 hour before VEGF 10 ng/mL, 24 hours, control without VEGF = 100%, FIG. 2
Description: Using CSC Complete Recombinant Medium, human retinal microvascular endothelial cells (HRMECs) were plated at a cell density of 2×10^3 cells/well on a 96-well plate. Twenty-four hours after plating, the medium was exchanged with a CSC medium containing 10% fetal bovine serum (FBS). Then, twenty-four hours after the medium exchange, edaravone was added in a final concentration of 1, 10 or 100 μM to an edaravone addition group. One hour after the addition of edaravone, to a vascular endothelial growth factor (VEGF) addition group, VEGF was added in a final concentration of 10 ng/mL. Twenty-four hours after the addition of VEGF, in order to remove the reagent and VEGF, the medium was exchanged again with a CSC medium containing 10% FBS. After completion of the medium exchange, cell counting kit-8 was added, and the absorbance at 450 nm was then measured (defined as “measurement value 1”). Three hours after the measurement of the absorbance, the second absorbance measurement was carried out (defined as “measurement value 2”). The measurement value 1 was subtracted from the measurement value 2, and the obtained value was then corrected, using a control group, to which VEGF had not been added, as 100%. The thus obtained value was defined as a growth rate. The cells were cultured under conditions of 37° C. and 5% CO2, except for the operations.

[2] = system: mouse models induced to have choroidal neovascularization (CNV) by laser irradiation (CNV models); assay: laser-induced choroidal neovascularization (CNV) mouse model, area of CNV; format: in vivo; conditions: mice; 3 mg/kg or 10 mg/kg edaravone into the caudal vein immediately after laser irradiation; choroidal flat mount 14 days after irradiation; FIG. 1A, 1B
Description: In such CNV models, macrophages migrate as a result of provocation of inflammation by laser irradiation. Consequently, VEGF is generated, and new blood vessels are formed.
A 10-fold dilution of a mixed anesthetic solution of ketamine and xylazine (7:1) was administered at a dose of 10 mL/kg into the femoral muscle of each mouse, and one eye was then irradiated with laser at 6 sites with equal intervals on the circumference of discus nervi optici (wave length: 647 nm, spot size: 50 μm, irradiation time: 100 msec, and laser output: 120 mW). Immediately after the laser irradiation, 3 mg/kg edaravone, 10 mg/kg edaravone, or 10 mL/kg normal saline was administered into the caudal vein of each mouse. Thereafter, fundus photography was carried out using a fundus camera. Fourteen days after the laser irradiation, a 10-fold dilution of Fluorescite (registered trademark) Injection Solution No. 1 was administered at a dose of 0.5 mL/kg into the caudal vein under the same anesthesia as described above, and fluorescein fundus photography was then carried out using a fundus camera. […] The expression of CNV was evaluated by choroidal flat mount. Using a confocal laser scanning microscope, the CNV was photographed, and the area of CNV was then measured. […]

CC1=NN(c2ccccc2)C(=O)C1 [edaravone, 3-methyl-1-phenyl-2-pyrazolin-5-one]
cell growth induced by VEGF (growth rate) [1]: suppressed | CNV formation (area of CNV) [2]: inhibited
